Where a name gives a salt, the structure may show the parent alone.
Assays:
[1] = Photo stability of bulk substance (Suntest CPS+ cabinet); details: 29 hours
Procedure: The exposure was 250 Wh/m^2 and 1.2 million lux hours over 29 hours.

[2] = Hygroscopicity by Dynamic Vapour Sorption Analysis (DVS); assay type: physicochemical; details: 25° C.
Procedure: Dynamic Vapour Sorption Analysis (DVS)
The studies were undertaken using Dynamic Vapour Sorption Apparatus (DVS, Surface Measurement Systems, London UK). The apparatus consists of Cahn micobalance housed inside a temperature-controled cabinet. All experiments were performed at 25° C. The DVS was used to characterize the moisture uptake (w/w %) at different relative humidities (RH). Samples (5-10 mg) were weighed directly into the DSV sample cup and exposed to different relative humidities.

| photo stability compared with the hydrochloride salt and the free base [1] | moisture uptake ([2]; 40% relative humidity, citrate) [w/w %] | moisture uptake ([2]; 60% relative humidity, citrate) [w/w %] | moisture uptake ([2]; 80% relative humidity, citrate) [w/w %] | hygroscopicity compared with the hydrochloride salt ([2]; DVS) | moisture uptake ([2]; 40% relative humidity) [w/w %] | moisture uptake ([2]; 60% relative humidity) [w/w %] | moisture uptake ([2]; 80% relative humidity) [w/w %] | Compound |
| --- | --- | --- | --- | --- | --- | --- | --- | --- |
| much higher photo stability | 7.1 | 7.6 | 8.0 | lower hygroscopicity | – | – | – | N#Cc1ccc2[nH]c(O)c(-c3ccc(CN4CCOCC4)cn3)c2c1 [Citrate, 2-hydroxy-3-[5-(morpholin-4-ylmethyl)pyridin-2-yl]1H-indole-5-carbonitrile citrate] |
| – | – | – | – | – | 8.7 | 11.5 | 13.0 | N#Cc1ccc2[nH]c(O)c(-c3ccc(CN4CCOCC4)cn3)c2c1 [HCl, hydrochloride salt of 2-hydroxy-3-[5-(morpholin-4-ylmethyl)pyridin-2-yl]1H-indole-5-carbonitrile, reference compound] |

— patent US20070203137A1, “New Salt” (ASTRAZENECA AB, priority 2006, published 2007)
